From US20250375398A1
Like-named read-outs stand apart in the source and are kept apart here.

Assays:
SARS-CoV-2 [1] = settings: for host cell viability, normalized to remdesivir alone (5 μM) / host cell viability (in words): infected Vero E6, 72 hours
[2] = system: SARS-CoV-2 virus [B.1.351]; assay type: in vivo, mice; settings: day 4
[3] = system: SARS-CoV-2 virus [B.1.351]; assay type: in vivo, mice
SARS-CoV-2 [4] = assay type: cell-based; settings: remdesivir alone, dose-dependent; control around 10^6 TCID50/mL
SARS-CoV-2 [5] = assay: microbe, parasite or virus in culture

In the case of Cc1cc(O)c2c(=O)c3c(O)cc(O)c4c5c(O)cc(O)c6c(=O)c7c(O)cc(C)c8c1c2c(c34)c(c78)c65 [Hypericin], the “host cell viability, normalized to remdesivir alone (5 μM)” value (from here on “host cell viability, normalized”) (SARS-CoV-2 [1]; hypericin 1.563 μM, remdesivir 0 μM) was 14.6%, the “host cell viability, normalized” value (SARS-CoV-2 [1]; hypericin 3.125 μM, remdesivir 0 μM) was 12.9% and the “host cell viability, normalized” value (SARS-CoV-2 [1]; hypericin 6.25 μM, remdesivir 0 μM) was 12.8%. For the same compound, the “host cell viability, normalized” value (SARS-CoV-2 [1]; hypericin 12.5 μM, remdesivir 0 μM) was 20.4%, the “host cell viability, normalized” value (SARS-CoV-2 [1]; hypericin 25 μM, remdesivir 0 μM) was 62.0% and the “host cell viability, normalized” value (SARS-CoV-2 [1]; hypericin 50 μM, remdesivir 0 μM) was 62.6%. The “host cell viability, normalized” value (SARS-CoV-2 [1]; hypericin 100 μM, remdesivir 0 μM) was 38.0%, the “host cell viability (in words)” value (SARS-CoV-2 [1]; hypericin (25-50 μM) alone) was “modest improvements in host cell viability” and the host cell viability (SARS-CoV-2 [1]; hypericin alone, 12.5-50 μM) was 20-62%. The “mice in which all infectious titers in lung were eliminated” value ([2]; Hypericin 20 mg/kg, pre-treatment from two days prior to infection) was 5 out of 7.
In the case of CCC(CC)COC(=O)[C@H](C)N[P@](=O)(OC[C@H]1O[C@@](C#N)(c2ccc3c(N)ncnn23)[C@H](O)[C@@H]1O)Oc1ccccc1 [Remdesivir], the “infectious titers in lung, in words” value ([3]; remdesivir 25 mg/kg daily intraperitoneally, day 4 post infection) was “strongest antiviral effect in reducing infectious titer”, the “infectious titers in lung (plaque forming unit per mg of tissues), in words” value ([3]; remdesivir 5, 10 or 25 mg/kg daily intraperitoneally from day 1 post infection, day 4) was “dose-dependent effect on reducing infectious titers” and the “viral titer of SARS-CoV-2” value (SARS-CoV-2 [4]) was “zero”. For the same compound, the viability at 5 µM (SARS-CoV-2 [5]; Severe acute respiratory syndrome coronavirus 2, Vero C1008, 72 h, read-out: host cell viability, normalized to remdesivir alone (5 μM)) was 100%, the viability at 1.25 µM (SARS-CoV-2 [5]; Severe acute respiratory syndrome coronavirus 2, Vero C1008, read-out: host cell viability) was 26% and the “host cell viability, normalized” value (SARS-CoV-2 [1]; hypericin 0 μM, remdesivir 0.3125 μM) was 19.8%. For the same compound, the “host cell viability, normalized” value (SARS-CoV-2 [1]; hypericin 0 μM, remdesivir 0.625 μM) was 21.9%, the “host cell viability, normalized” value (SARS-CoV-2 [1]; hypericin 0 μM, remdesivir 1.25 μM) was 25.2% and the “host cell viability, normalized” value (SARS-CoV-2 [1]; hypericin 0 μM, remdesivir 2.5 μM) was 38.1%. For the same compound, the “host cell viability (in words)” value (SARS-CoV-2 [1]; remdesivir (5 μM) alone) was “dose-dependently improved host cell viability”, the “infectious titers in lung compared to vehicle, in words” value ([2]; Remdesivir 10 mg/kg daily from day 1 post infection) was “did not impact infectious titers compared to vehicle” and the “mice in which all infectious titers in lung were eliminated” value ([2]; Remdesivir 25 mg/kg daily from day 1 post infection) was 4 out of 7.
